Laboratory results from US7105541B2, “Naphthyl compounds, intermediates, compositions, and methods of use” (Eli Lilly and Company, priority 1996, dated 2006).
Counter-ions that a name gives are not always drawn. Marks after values point to notes of the source that are not given here.

Tested on: ovariectomized rats
Test: ovariectomized rat model of postmenopausal hyperlipidemia (serum cholesterol, uterine weight, uterine eosinophil peroxidase)
Type: in vivo
From the text: Experimental models of postmenopausal hyperlipidemia are known in the art. Germane to this invention is the ovariectomized rat model which is detailed in U.S. Pat. No. 5,464,845. Data presented in Table 1 show comparative results among ovariectomized rats, rats treated with 17-α-ethynyl estradiol (EE2), and rats treated with certain compounds of this invention. […] This uterine response to estrogen is well recognized in the art.
Not only did the compounds of the present invention reduce serum cholesterol compared to the ovariectomized animals, but the uterine weight was increased to lesser extent than those given EE2. Compared to estrogenic compounds known in the art, the benefit of serum cholesterol reduction while lessening the effect on uterine weight is unusual and desirable.
As expressed in the data below, estrogenicity also was assessed by evaluating the response of eosinophil infiltration into the uterus.
The data presented in Table 1 reflect the response per treatment group.

[1] = ovariectomized rats, 0.1 mg/kg PO
[2] = ovariectomized rats, 1.0 mg/kg PO
[3] = ovariectomized rats, 10.0 mg/kg PO
[4] = orally administered at 0.1 mg/kg/day, ovariectomized rats
[5] = ovariectomized rats, 0.01 mg/kg PO

| SMILES | Serum Cholest. % Dec. (decrease versus ovariectomized controls) [1] | Uterine Eosinophil (Vmax), eosinophil peroxidase [1] | Uterine Weight % Inc (increase versus the ovariectomized controls) [1] | Serum Cholest. % Dec. (decrease versus ovariectomized controls) [2] | Uterine Eosinophil (Vmax), eosinophil peroxidase [2] | Uterine Weight % Inc (increase versus the ovariectomized controls) [2] | Serum Cholest. % Dec. (decrease versus ovariectomized controls) [3] | Uterine Eosinophil (Vmax), eosinophil peroxidase [3] | Uterine Weight % Inc (increase versus the ovariectomized controls) [3] | serum cholesterol (in words) [4] | uterine weight versus ovariectomized animals (in words) [4] | eosinophil infiltration into the uterus (in words) (stromal layer of ovariectomized rat uteri) | Serum Cholest. % Dec. (decrease versus ovariectomized controls) [5] [%] | Uterine Eosinophil (Vmax), eosinophil peroxidase [5] | Uterine Weight % Inc (increase versus the ovariectomized controls) [5] [%] |
| --- | --- | --- | --- | --- | --- | --- | --- | --- | --- | --- | --- | --- | --- | --- | --- |
| Cl.Oc1cccc(-c2ccc3cc(O)ccc3c2Oc2ccc(OCCN3CCCCC3)cc2)c1 [Example 3, 1-[4-[2-(1-piperidinyl)ethoxy]phenoxy]-2-(3-hydroxyphenyl)-6-hydroxynaphthalene hydrochloride] | 26.3* % | 4.8 | 10.4% | 45.7* % | 3.0 | 15.3% | 22.9% | 1.2 | 3.9% | – | – | – | – | – | – |
| COc1cccc(-c2ccc3ccccc3c2Oc2ccc(OCCN3CCCCC3)cc2)c1.Cl [Example 2, 1-[4-[2-(1-piperidinyl)ethoxy]phenoxy]-2-(3-methoxyphenyl)naphthalene hydrochloride] | 59.6* % | 4.5 | 42.7* % | 66.2* % | 7.8 | 43.8* % | 59.0* % | 4.5 | 37.2* % | – | – | – | – | – | – |
| C#C[C@]1(O)CC[C@H]2[C@@H]3CCc4cc(O)ccc4[C@H]3CC[C@@]21C [EE2, 17-α-Ethynyl-estradiol, reference compound] | 88.1* % | 174.3* | 138.8* % | – | – | – | – | – | – | caused a decrease in serum cholesterol | substantially greater than the uterine weight of the ovariectomized animals | substantial and expected increase in eosinophil infiltration | – | – | – |
| O=C(c1ccc(OCCN2CCCCC2)cc1)c1c(-c2ccc(O)cc2)sc2cc(O)ccc12 [Raloxifene, [2-(4-hydroxyphenyl)-6-hydroxybenzo[b]thien-3-yl] [4-[2-(1-piperdinyl)ethoxy]phenyl]methanone hydrochloride, reference compound] | 49.3* % | 5.4 | 23.5% | – | – | – | – | – | – | – | – | – | – | – | – |
| COc1cccc(-c2ccc3cc(OC)ccc3c2Oc2ccc(OCCN3CCCCC3)cc2)c1.Cl [Example 1, 1-[4-[2-(1-piperidinyl)ethoxy]phenoxy]-2-(3-methoxyphenyl)-6-methoxynaphthalene hydrochloride] | 55.6* % | 4.8 | 21.9% | 60.5* % | 4.8 | 35.8* % | – | – | – | – | – | – | 12.1 | 2.1 | 9.6 |
